Patent US20100221200A1, “COMPOSITIONS AND METHODS FOR SKIN CARE” (THE OHIO STATE UNIVERSITY RESEARCH FOUNDATION, priority 2007, published 2010)
Square brackets hold non-standard residues; d marks the D form. Peptide text beside a SMILES is read from it.

How the values were obtained:
[1] = system: summer-active ground squirrels; details: administered to summer-active ground squirrels; cited from earlier work
[2] = system: isolated or transplanted organs including heart, lung and kidneys; details: cited from earlier work
[3] = system: skin of the malar surface of the face; test: Blinded split-face topical application of deltorphin cream: skin appearance and wrinkles; assay type: in vivo
Protocol: (§1) A test subject (body weight ˜71 kg) received an application of 10 μg deltorphin, constituted in an inert base, to the malar surface on the left side of the face extending from the periorbital region to the mandible. The inert base (without the deltorphin) was applied to the right side of the face but the subject was blind to which cream contained the deltorphin. The cream was applied twice daily, in the morning and night. After 3 weeks, the subject was observed.
A test subject (˜55 kg) received an application of 1 μg of deltorphin in an inert base to the malar surface of the right side of the face, with an identical inert cream applied to the left in a blinded fashion (the subject was unaware of which cream contained the active peptide). After three weeks of morning and evening application of the cream (no other topical agents were applied), the subject was scored for appearance.
(§2) A test subject (˜61 kg) received an application of 100 μg of deltorphin in an inert base to the malar surface on the right side, with an equal amount of inert base, but no active peptide, applied blindly to the left side of the face. The two creams were applied twice daily, morning and night, for three weeks prior to being observed.

[4] = system: skin of the malar surface of the face; test: Blinded split-face topical application of deltorphin cream: local tolerance (irritation, allergy); assay type: in vivo
Protocol: as §1, §2

[5] = Example 1: subject, 10 μg deltorphin in inert base, twice daily, 3 weeks
[6] = Example 3: subject, 100 μg deltorphin in inert base, twice daily, three weeks

## CC(C)C[C@@H](NC(=O)[C@H](Cc1ccccc1)NC(=O)CNC(=O)[C@@H](C)NC(=O)[C@@H](N)Cc1ccc(O)cc1)C(=O)O [DADLE, Tyr-D-Ala-Gly-Phe-D-Leu]
[1]
  induction of hibernation: induces hibernation
[2]
  viability and preservation of organs: improves the viability and preservation

## CSCC[C@H](NC(=O)[C@H](CC(C)C)NC(=O)[C@H](Cc1c[nH]cn1)NC(=O)[C@H](Cc1ccccc1)NC(=O)[C@@H](CCSC)NC(=O)[C@@H](N)Cc1ccc(O)cc1)C(=O)N[C@@H](CC(=O)O)C(N)=O [deltorphin, Tyr-D-Met-Phe-His-Leu-Met-Asp-NH2] (H-Y[dM]FHLMD-NH2)
[3]; Example 1: subject, 10 μg deltorphin in inert base, left side, twice daily, 3 weeks
  appearance of treated side of the face versus inert-base side: noticeable improved appearance
[3]; [5]
  wrinkles (fine and moderate): appeared diminished
[3]; Example 2: subject, 1 μg deltorphin in inert base, morning and evening, three weeks
  wrinkles, particularly in the periorbital region: marked reduction in wrinkles
[3]; Example 2: subject, 1 μg deltorphin in inert base, right side, morning and evening, three weeks
  appearance of treated side of the face versus inert-base side: noticeable difference was apparent
[3]; Example 3: subject, 100 μg deltorphin in inert base, right side, twice daily, three weeks
  appearance of treated side of the face versus inert-base side: significant and visible improvements
[3]; [6]
  wrinkles (fine and deep): readily notable improvements and diminishment in wrinkles

## CSCC[C@H](NC(=O)[C@H](CC(C)C)NC(=O)[C@H](Cc1cnc[nH]1)NC(=O)[C@H](Cc1ccccc1)NC(=O)[C@@H](CCSC)NC(=O)[C@@H](N)Cc1ccc(O)cc1)C(=O)N[C@@H](CC(=O)O)C(N)=O [deltorphin, Tyr-D-Met-Phe-His-Leu-Met-Asp-NH2] (H-Y[dM]FHLMD-NH2)
[4]; [5]
  signs of irritation, redness, heat or swelling: no sign of any irritation, no redness, heat or swelling
[4]; Example 3: subject, 100 μg deltorphin cream, one occasion, subject's report
  eye irritation after inadvertent contact of the cream with the eye: without any significant eye irritation or redness
[4]; [6]
  signs of allergy, hypersensitivity or irritation (redness, swelling, heat, pruritus): no signs of any allergy, hypersensitivity or irritation
